# Data published in patent US10167262B2, “Herbicidal substituted 3-arylpyrazoles” (FMC CORPORATION, priority 2014, dated 2019).
# Legend:
# Test in all cases: Test D postemergence controlled growth environment test, plant response rating 0-100
# Format in all cases: in vivo
# [1] = test system: windgrass (Apera spica-venti)
# In short: (§1)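 Visual ratings of 0 (no effect) to 100 (complete control) were assigned 14 days after treatment by comparison with untreated plants. Test chemicals, formulated in a non-phytotoxic surfactant-containing solvent mixture, had been applied postemergence to potted plants at the 1- to 4-leaf stage.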
# [2] = test system: lambsquarters (Chenopodium album)
# In short: as §1
# [3] = test system: winter barley (Hordeum vulgare)
# In short: as §1
# [4] = test system: Russian thistle (Salsola kali)
# In short: as §1
# [5] = test system: field violet (Viola arvensis)
# In short: as §1
# [6] = test system: galium (catchweed bedstraw, Galium aparine)
# In short: as §1
# kochia (Kochia scoparia) = test system: kochia (Kochia scoparia)
# In short: as §1
# [7] = test system: Italian ryegrass (Lolium multiflorum)
# In short: as §1
# [8] = test system: wild mustard (Sinapis arvensis)
# In short: as §1
# [9] = test system: spring barley (Hordeum vulgare)
# In short: as §1
# [10] = test system: canarygrass (Phalaris minor)
# In short: as §1
# [11] = test system: downy bromegrass (Bromus tectorum)
# In short: as §1
# [12] = test system: winter wheat (Triticum aestivum)
# In short: as §1
# [13] = test system: spring wheat (Triticum aestivum)
# In short: as §1
# [14] = test system: deadnettle (henbit deadnettle, Lamium amplexicaule)
# In short: as §1
# [15] = test system: chickweed (common chickweed, Stellaria media)
# In short: as §1
# [16] = test system: wild buckwheat (Polygonum convolvulus)
# In short: as §1
# [17] = test system: bluegrass (annual bluegrass, Poa annua)
# In short: as §1
# [18] = test system: green foxtail (Setaria viridis)
# In short: as §1
structure (smiles),measurement,setting,value
"C#CCn1cc(C(=O)c2ccccc2)c(-c2cc(Cl)cc(Cl)c2)n1 [Compound 39, [3-(3,5-dichlorophenyl)-1-(2-propyn-1-yl)-1H-pyrazol-4-yl]phenylmethanone]","Plant response rating, Windgrass",[1]; 16 g ai/ha,0
same,"Plant response rating, Windgrass",[1]; 31 g ai/ha,0
same,"Plant response rating, Windgrass",[1]; 62 g ai/ha,0
same,"Plant response rating, Windgrass",[1]; 125 g ai/ha,0
same,"Plant response rating, Windgrass",[1]; 250 g ai/ha,0
same,"Plant response rating, Lambsquarters",[2]; 16 g ai/ha,0
same,"Plant response rating, Lambsquarters",[2]; 31 g ai/ha,0
same,"Plant response rating, Lambsquarters",[2]; 62 g ai/ha,10
same,"Plant response rating, Lambsquarters",[2]; 125 g ai/ha,20
same,"Plant response rating, Lambsquarters",[2]; 250 g ai/ha,25
same,"Plant response rating, Barley, Winter",[3]; 16 g ai/ha,0
same,"Plant response rating, Barley, Winter",[3]; 31 g ai/ha,0
same,"Plant response rating, Barley, Winter",[3]; 62 g ai/ha,0
same,"Plant response rating, Barley, Winter",[3]; 125 g ai/ha,0
same,"Plant response rating, Barley, Winter",[3]; 250 g ai/ha,0
same,"Plant response rating, Russian Thistle",[4]; 16 g ai/ha,0
same,"Plant response rating, Russian Thistle",[4]; 31 g ai/ha,0
same,"Plant response rating, Russian Thistle",[4]; 62 g ai/ha,10
same,"Plant response rating, Russian Thistle",[4]; 125 g ai/ha,20
same,"Plant response rating, Russian Thistle",[4]; 250 g ai/ha,25
same,"Plant response rating, Field Violet",[5]; 16 g ai/ha,0
same,"Plant response rating, Field Violet",[5]; 31 g ai/ha,0
same,"Plant response rating, Field Violet",[5]; 62 g ai/ha,10
same,"Plant response rating, Field Violet",[5]; 125 g ai/ha,10
same,"Plant response rating, Galium",[6]; 16 g ai/ha,0
same,"Plant response rating, Galium",[6]; 31 g ai/ha,0
same,"Plant response rating, Galium",[6]; 62 g ai/ha,0
same,"Plant response rating, Galium",[6]; 125 g ai/ha,0
same,"Plant response rating, Galium",[6]; 250 g ai/ha,0
same,"Plant response rating, Kochia",kochia (Kochia scoparia); 16 g ai/ha,0
same,"Plant response rating, Kochia",kochia (Kochia scoparia); 31 g ai/ha,0
same,"Plant response rating, Kochia",kochia (Kochia scoparia); 62 g ai/ha,20
same,"Plant response rating, Kochia",kochia (Kochia scoparia); 125 g ai/ha,10
same,"Plant response rating, Kochia",kochia (Kochia scoparia); 250 g ai/ha,20
same,"Plant response rating, Ryegrass, Italian",[7]; 16 g ai/ha,0
same,"Plant response rating, Ryegrass, Italian",[7]; 31 g ai/ha,0
same,"Plant response rating, Ryegrass, Italian",[7]; 62 g ai/ha,0
same,"Plant response rating, Ryegrass, Italian",[7]; 125 g ai/ha,0
same,"Plant response rating, Ryegrass, Italian",[7]; 250 g ai/ha,10
same,"Plant response rating, Mustard, Wild",[8]; 16 g ai/ha,20
same,"Plant response rating, Mustard, Wild",[8]; 31 g ai/ha,20
same,"Plant response rating, Mustard, Wild",[8]; 62 g ai/ha,70
same,"Plant response rating, Mustard, Wild",[8]; 125 g ai/ha,70
same,"Plant response rating, Mustard, Wild",[8]; 250 g ai/ha,80
same,"Plant response rating, Barley, Spring",[9]; 16 g ai/ha,0
same,"Plant response rating, Barley, Spring",[9]; 31 g ai/ha,0
same,"Plant response rating, Barley, Spring",[9]; 62 g ai/ha,0
same,"Plant response rating, Barley, Spring",[9]; 125 g ai/ha,0
same,"Plant response rating, Barley, Spring",[9]; 250 g ai/ha,0
same,"Plant response rating, Canarygrass",[10]; 16 g ai/ha,0
same,"Plant response rating, Canarygrass",[10]; 31 g ai/ha,0
same,"Plant response rating, Canarygrass",[10]; 62 g ai/ha,0
same,"Plant response rating, Canarygrass",[10]; 125 g ai/ha,0
same,"Plant response rating, Canarygrass",[10]; 250 g ai/ha,0
same,"Plant response rating, Bromegrass, Downy",[11]; 16 g ai/ha,0
same,"Plant response rating, Bromegrass, Downy",[11]; 31 g ai/ha,0
same,"Plant response rating, Bromegrass, Downy",[11]; 62 g ai/ha,0
same,"Plant response rating, Bromegrass, Downy",[11]; 125 g ai/ha,0
same,"Plant response rating, Bromegrass, Downy",[11]; 250 g ai/ha,0
same,"Plant response rating, Wheat, Winter",[12]; 16 g ai/ha,0
same,"Plant response rating, Wheat, Winter",[12]; 31 g ai/ha,0
same,"Plant response rating, Wheat, Winter",[12]; 62 g ai/ha,0
same,"Plant response rating, Wheat, Winter",[12]; 125 g ai/ha,0
same,"Plant response rating, Wheat, Winter",[12]; 250 g ai/ha,0
same,"Plant response rating, Wheat, Spring",[13]; 16 g ai/ha,0
same,"Plant response rating, Wheat, Spring",[13]; 31 g ai/ha,0
same,"Plant response rating, Wheat, Spring",[13]; 62 g ai/ha,0
same,"Plant response rating, Wheat, Spring",[13]; 125 g ai/ha,0
same,"Plant response rating, Wheat, Spring",[13]; 250 g ai/ha,0
same,"Plant response rating, Deadnettle",[14]; 16 g ai/ha,0
same,"Plant response rating, Deadnettle",[14]; 31 g ai/ha,0
same,"Plant response rating, Deadnettle",[14]; 62 g ai/ha,0
same,"Plant response rating, Deadnettle",[14]; 125 g ai/ha,0
same,"Plant response rating, Deadnettle",[14]; 250 g ai/ha,0
same,"Plant response rating, Chickweed",[15]; 16 g ai/ha,0
same,"Plant response rating, Chickweed",[15]; 31 g ai/ha,0
same,"Plant response rating, Chickweed",[15]; 62 g ai/ha,10
same,"Plant response rating, Chickweed",[15]; 125 g ai/ha,30
same,"Plant response rating, Chickweed",[15]; 250 g ai/ha,50
same,"Plant response rating, Buckwheat, Wild",[16]; 16 g ai/ha,0
same,"Plant response rating, Buckwheat, Wild",[16]; 31 g ai/ha,0
same,"Plant response rating, Buckwheat, Wild",[16]; 62 g ai/ha,0
same,"Plant response rating, Buckwheat, Wild",[16]; 125 g ai/ha,10
same,"Plant response rating, Buckwheat, Wild",[16]; 250 g ai/ha,20
same,"Plant response rating, Bluegrass",[17]; 16 g ai/ha,0
same,"Plant response rating, Bluegrass",[17]; 31 g ai/ha,0
same,"Plant response rating, Bluegrass",[17]; 62 g ai/ha,0
same,"Plant response rating, Bluegrass",[17]; 125 g ai/ha,0
same,"Plant response rating, Bluegrass",[17]; 250 g ai/ha,0
same,"Plant response rating, Foxtail, Green",[18]; 16 g ai/ha,0
same,"Plant response rating, Foxtail, Green",[18]; 31 g ai/ha,0
same,"Plant response rating, Foxtail, Green",[18]; 62 g ai/ha,0
same,"Plant response rating, Foxtail, Green",[18]; 125 g ai/ha,0
same,"Plant response rating, Foxtail, Green",[18]; 250 g ai/ha,10
